No end group written: not given here.
How the values were obtained:
[1] = test system: murine calvaria; assay: Calvarial bone resorption assay; format: cell-based, mouse; conditions: for osteolytic activity of peptides in the calvarial assay: graded concentrations, three separate experiments
[2] = test system: human osteoblast-like cell line MG63; assay: Osteoblast proliferation; format: cell-based; conditions: subconfluent MG63, 24 h, DMEM 2% FCS, [3H]thymidine last 6 h
[3] = test system: MG63 cells

Molecule: 1–58: synthetic Mt cpn10 peptide, residues 1–58 (MAKVNIKPLEDKILVQANEAETTTASGLVIPDTAKEKPQEGTVVAVGPGRWDEDGEKR; also: dimer; UniProt P9WPE5 1-58, looked up, fragment)
- osteolytic activity of peptides in the calvarial assay [1]: inactive

Molecule: 46–99: synthetic Mt cpn10 peptide, residues 46–99 (VGPGRWDEDGEKRIPLDVAEGDTVIYSKYGGTEIKYNGEEYLILSARDVLAVVS; UniProt P9WPE5 46-99, looked up, fragment)
- osteolytic activity of peptides in the calvarial assay [1]: inactive

Molecule: 51–99: synthetic Mt cpn10 peptide, residues 51–99 (WDEDGEKRIPLDVAEGDTVIYSKYGGTEIKYNGEEYLILSARDVLAVVS; UniProt P9WPE5 51-99, looked up, fragment)
- osteolytic activity of peptides in the calvarial assay [1]: inactive

Molecule: 54–99: synthetic Mt cpn10 peptide, residues 54–99 (DGEKRIPLDVAEGDTVIYSKYGGTEIKYNGEEYLILSARDVLAVVS; UniProt P9WPE5 54-99, looked up, fragment)
- osteolytic activity of peptides in the calvarial assay [1]: inactive

Molecule: 59–99: synthetic Mt cpn10 peptide, residues 59–99 (IPLDVAEGDTVIYSKYGGTEIKYNGEEYLILSARDVLAVVS; UniProt P9WPE5 59-99, looked up, fragment)
- osteolytic activity of peptides in the calvarial assay [1]: inactive

Molecule: 65–99: synthetic Mt cpn10 peptide, residues 65–99 (EGDTVIYSKYGGTEIKYNGEEYLILSARDVLAVVS; UniProt P9WPE5 65-99, looked up, fragment)
- osteolytic activity of peptides in the calvarial assay [1]: reproducible osteolytic activity

Molecule: GGIVLTGSAAA [GroES residues 23–33]
- osteolytic activity of peptides in the calvarial assay [1]: osteolytic activity

Molecule: TTTASGLVIPDTAKE [21–35]
- osteolytic activity of peptides in the calvarial assay [1]: osteolytic activity

Molecule: calcitonin (CGNLSTCMLGTYTQDFNKFHTFPQTAIGVGAP; ends and bridges not checked; cysteine pairing not given here; UniProt P01258 85-116, looked up) [reference compound]
- effect on r-Mt cpn10-induced bone resorption ([1]; calcitonin at 10 ng/ml, results not shown): blocked

Molecule: lipoarabinomannan [Mt LAM, reference compound]
- osteolytic activity ([1]; added at a concentration of 1 μg/ml): no osteolytic activity

Molecule: polymyxin B [reference compound]
- effect of addition on bone resorbing activity of r-Mt cpn10 [1]: no effect
- effect of addition on bone resorbing activity of the Mt sonicate [1]: no effect
- effect on osteolytic activity of peptides 26–99 and 65–99 [1]: no inhibitory effects

B1: r-Mt cpn10: recombinant Mycobacterium tuberculosis chaperonin 10 expressed in Escherichia coli, purified by reversed-phase HPLC to >97% purity (protein, UniProt P9WPE5 2-100, looked up)
Co-chaperonin GroES: AKVNIKPLEDKILVQANEAETTTASGLVIPDTAKEKPQEGTVVAVGPGRWDEDGEKRIPLDVAEGDTVIYSKYGGTEIKYNGEEYLILSARDVLAVVSK
modifications: recombinant, expressed in E. coli
- concentrations causing significant inhibition of cell proliferation [2]: ≥ 1 nM
- concentration at which osteolytic activity (calcium release) was noted [1]: 1 ng/mL
- concentration at which osteolytic activity was noted, molar equivalent [1]: 100 pmol
- stimulation of bone resorption, measured as calcium release into the tissue culture medium [1]: dose-dependent stimulation of calcium release
- cytotoxicity (lactate dehydrogenase release) [3]: not due to cytotoxicity
